Test results reported in patent US20140094424A1, “MICROBICIDAL COMPOSITIONS AND METHODS OF PRODUCTION USE THEREOF” (priority 2011, published 2014).
Where two headings read alike, the source gives them in different places.

Experiments:
Ralstonia pickettii (AU) = assay type: cell-based
Procedure: (§1) The stock organisms were thawed and subbed prior to beginning the MBC test. Molds were subbed to SDA plates one week before, and the bacteria were subbed to TAT agar plates 24 hours prior to the start of the test. All plates were incubated at 32 degrees C.
Each bacterial organism was inoculated into 40 ml sterile saline in a centrifuge tube to create a density of MacFarland #1. Two serial dilutions of 1:100 were then made, resulting in 10^−2 and 10^−4 concentrations. Each dilution was vortexed before it was sampled, and sterile Eppendorf pipette tips were used to make each transfer. The 10^−4 dilution was spiral plated to yield the initial inoculum concentration.
(§2) MBC trays were set up with the prepared test reagent. Using a Matrix pipettor, 100 μl aliquots of reagent were distributed into the wells, diluting the amount of preservative from 100% to 10% increments, using unpreserved reagent as the diluent. In one row, 100% non-preserved reagent acted as a positive control and served as a benchmark for a full mat of growth. In well #12H, 100 μl unpreserved reagent was pipetted, and this well was not inoculated with organisms, as it served as the negative control. Once all of the trays were prepared, the prepared bacteria/mold suspensions were poured into the MBC inoculating trays. These were placed onto the reagent trays, and 0.01 ml inoculum was introduced into the 100 μl of reagent in each well.
(§3) This was done by dipping a sterile cotton swab into each well, and absorbing all of the liquid in the well. The swab was rolled onto a TAT agar plate ensuring that the entire swab touches the agar. Plates ware incubated at 32 degrees C. for 48 hours to 7 days, depending on the organism. Observations for growth were performed by a scoring matrix using + for a full mat, +/− for some growth, a numerical value for an actual colony count, and—for no growth.
(§4) Below are tables that contain the data obtained in Example 1. The MBC test is scored by (+) indicating a full grown mat of organisms, equivalent to the organisms in the unpreserved reagent. (+/−) indicates there is some kill evident disturbing that mat or bringing the quantities down to an almost countable level. An actual number is the actual number of colonies growing at that concentration of preservative. (−) indicates no growth found. The MBC trays were stored at room temperature for the entire test.
(§5) The materials and methods and analysis of the MBC test were the same as in Example 1.

[1] = test system: Aspergillus glaucus- DMO (Q); experiment: MBC (minimum bactericidal concentration) test in Wash NEXT reagent; assay type: cell-based
Procedure: as §1
For the molds, each organism was inoculated into 40 ml sterile saline in a centrifuge tube to create a density of MacFarland #5. Two serial dilutions of 1:100 were then made, resulting in 10^−2 and 10^−4 concentrations. Each dilution was vortexed before it was sampled, and sterile Eppendorf pipette tips were used to make each transfer. The 10^−4 dilution was spiral plated to yield the initial inoculum concentration.
as §2, §3, §4, §5

In the case of gentamicin, the “MBC test growth score” value (Ralstonia pickettii (AU); 10% preservative, 8 hour) is reported as “−”, the “MBC test growth score” value (Ralstonia pickettii (AU); 10% preservative, 24 hour) is reported as “−” and the “MBC test growth score” value (Ralstonia pickettii (AU); 10% preservative, 48 hour) is reported as “−”. For the same substance, the “MBC test growth score” value (Ralstonia pickettii (AU); 10% preservative, 72 hour) was “−”, the “MBC test growth score” value (Ralstonia pickettii (AU); 20% preservative, 8 hour) was “−” and the “MBC test growth score” value (Ralstonia pickettii (AU); 20% preservative, 24 hour) was “−”. The “MBC test growth score” value (Ralstonia pickettii (AU); 20% preservative, 48 hour) was “−”, the “MBC test growth score” value (Ralstonia pickettii (AU); 20% preservative, 72 hour) was “−” and the “MBC test growth score” value (Ralstonia pickettii (AU); 30% preservative, 8 hour) was “−”. For the same substance, the “MBC test growth score” value (Ralstonia pickettii (AU); 30% preservative, 24 hour) was “−”, the “MBC test growth score” value (Ralstonia pickettii (AU); 30% preservative, 48 hour) was “−” and the “MBC test growth score” value (Ralstonia pickettii (AU); 30% preservative, 72 hour) was “−”. The “MBC test growth score” value (Ralstonia pickettii (AU); 40% preservative, 8 hour) was “−”, the “MBC test growth score” value (Ralstonia pickettii (AU); 40% preservative, 24 hour) was “−” and the “MBC test growth score” value (Ralstonia pickettii (AU); 40% preservative, 48 hour) was “−”. For the same substance, the “MBC test growth score” value (Ralstonia pickettii (AU); 40% preservative, 72 hour) was “−”, the “MBC test growth score” value (Ralstonia pickettii (AU); 50% preservative, 8 hour) was “−” and the “MBC test growth score” value (Ralstonia pickettii (AU); 50% preservative, 24 hour) was “−”. The “MBC test growth score” value (Ralstonia pickettii (AU); 50% preservative, 48 hour) was “−”, the “MBC test growth score” value (Ralstonia pickettii (AU); 50% preservative, 72 hour) was “−” and the “MBC test growth score” value (Ralstonia pickettii (AU); 60% preservative, 8 hour) was “−”. The “MBC test growth score” value (Ralstonia pickettii (AU); 60% preservative, 24 hour) was “−”, the “MBC test growth score” value (Ralstonia pickettii (AU); 60% preservative, 48 hour) was “−” and the “MBC test growth score” value (Ralstonia pickettii (AU); 60% preservative, 72 hour) was “−”. The “MBC test growth score” value (Ralstonia pickettii (AU); 70% preservative, 8 hour) was “−”, the “MBC test growth score” value (Ralstonia pickettii (AU); 70% preservative, 24 hour) was “−” and the “MBC test growth score” value (Ralstonia pickettii (AU); 70% preservative, 48 hour) was “−”. The “MBC test growth score” value (Ralstonia pickettii (AU); 70% preservative, 72 hour) was “−”, the “MBC test growth score” value (Ralstonia pickettii (AU); 80% preservative, 8 hour) was “−” and the “MBC test growth score” value (Ralstonia pickettii (AU); 80% preservative, 24 hour) was “−”. For the same substance, the “MBC test growth score” value (Ralstonia pickettii (AU); 80% preservative, 48 hour) was “−”, the “MBC test growth score” value (Ralstonia pickettii (AU); 80% preservative, 72 hour) was “−” and the “MBC test growth score” value (Ralstonia pickettii (AU); 90% preservative, 8 hour) was “−”. The “MBC test growth score” value (Ralstonia pickettii (AU); 90% preservative, 24 hour) was “−”, the “MBC test growth score” value (Ralstonia pickettii (AU); 90% preservative, 48 hour) was “−” and the “MBC test growth score” value (Ralstonia pickettii (AU); 90% preservative, 72 hour) was “−”. For the same substance, the “MBC test growth score” value (Ralstonia pickettii (AU); 100% preservative, 8 hour) was “−”, the “MBC test growth score” value (Ralstonia pickettii (AU); 100% preservative, 24 hour) was “−” and the “MBC test growth score” value (Ralstonia pickettii (AU); 100% preservative, 48 hour) was “−”. For the same substance, the “MBC test growth score” value (Ralstonia pickettii (AU); 100% preservative, 72 hour) was “−”, the “MBC test growth score” value ([1]; 10% preservative, 8 hour) was “+” and the “MBC test growth score” value ([1]; 10% preservative, 24 hour) was “+”. The “MBC test growth score” value ([1]; 10% preservative, 48 hour) was “+/−”, the “MBC test growth score” value ([1]; 10% preservative, 72 hour) was “+/−” and the “MBC test growth score” value ([1]; 10% preservative, 7 day) was “+/−”. The “MBC test growth score” value ([1]; 10% preservative, 14 day) was “+/−”, the “MBC test growth score” value ([1]; 20% preservative, 8 hour) was “+” and the “MBC test growth score” value ([1]; 20% preservative, 24 hour) was “+”. For the same substance, the “MBC test growth score” value ([1]; 20% preservative, 48 hour) was “+/−”, the “MBC test growth score” value ([1]; 20% preservative, 72 hour) was “+/−” and the “MBC test growth score” value ([1]; 20% preservative, 7 day) was “+/−”. The “MBC test growth score” value ([1]; 20% preservative, 14 day) was “+/−”, the “MBC test growth score” value ([1]; 30% preservative, 8 hour) was “+” and the “MBC test growth score” value ([1]; 30% preservative, 24 hour) was “+”. The “MBC test growth score” value ([1]; 30% preservative, 48 hour) was “+/−”, the “MBC test growth score” value ([1]; 30% preservative, 72 hour) was “+/−” and the “MBC test growth score” value ([1]; 30% preservative, 7 day) was “+/−”. For the same substance, the “MBC test growth score” value ([1]; 30% preservative, 14 day) was 36, the “MBC test growth score” value ([1]; 40% preservative, 8 hour) was “+” and the “MBC test growth score” value ([1]; 40% preservative, 24 hour) was “+”. For the same substance, the “MBC test growth score” value ([1]; 40% preservative, 48 hour) was “+/−”, the “MBC test growth score” value ([1]; 40% preservative, 72 hour) was “+/−” and the “MBC test growth score” value ([1]; 40% preservative, 7 day) was “+/−”. For the same substance, the “MBC test growth score” value ([1]; 40% preservative, 14 day) was 35, the “MBC test growth score” value ([1]; 50% preservative, 8 hour) was “+” and the “MBC test growth score” value ([1]; 50% preservative, 24 hour) was “+”. The “MBC test growth score” value ([1]; 50% preservative, 48 hour) was “+/−”, the “MBC test growth score” value ([1]; 50% preservative, 72 hour) was “+/−” and the “MBC test growth score” value ([1]; 50% preservative, 7 day) was 29. For the same substance, the “MBC test growth score” value ([1]; 50% preservative, 14 day) was 28, the “MBC test growth score” value ([1]; 60% preservative, 8 hour) was “+” and the “MBC test growth score” value ([1]; 60% preservative, 24 hour) was “+”. The “MBC test growth score” value ([1]; 60% preservative, 48 hour) was “+/−”, the “MBC test growth score” value ([1]; 60% preservative, 72 hour) was “+/−” and the “MBC test growth score” value ([1]; 60% preservative, 7 day) was 25. The “MBC test growth score” value ([1]; 60% preservative, 14 day) was 26, the “MBC test growth score” value ([1]; 70% preservative, 8 hour) was “+” and the “MBC test growth score” value ([1]; 70% preservative, 24 hour) was “+”. The “MBC test growth score” value ([1]; 70% preservative, 48 hour) was “+/−”, the “MBC test growth score” value ([1]; 70% preservative, 72 hour) was “+/−” and the “MBC test growth score” value ([1]; 70% preservative, 7 day) was 21. For the same substance, the “MBC test growth score” value ([1]; 70% preservative, 14 day) was 20, the “MBC test growth score” value ([1]; 80% preservative, 8 hour) was “+” and the “MBC test growth score” value ([1]; 80% preservative, 24 hour) was “+”. For the same substance, the “MBC test growth score” value ([1]; 80% preservative, 48 hour) was “+/−”, the “MBC test growth score” value ([1]; 80% preservative, 72 hour) was “+/−” and the “MBC test growth score” value ([1]; 80% preservative, 7 day) was 16. For the same substance, the “MBC test growth score” value ([1]; 80% preservative, 14 day) was 14, the “MBC test growth score” value ([1]; 90% preservative, 8 hour) was “+” and the “MBC test growth score” value ([1]; 90% preservative, 24 hour) was “+”. The “MBC test growth score” value ([1]; 90% preservative, 48 hour) was “+/−”, the “MBC test growth score” value ([1]; 90% preservative, 72 hour) was 22 and the “MBC test growth score” value ([1]; 90% preservative, 7 day) was 10. For the same substance, the “MBC test growth score” value ([1]; 90% preservative, 14 day) was 9, the “MBC test growth score” value ([1]; 100% preservative, 8 hour) was “+” and the “MBC test growth score” value ([1]; 100% preservative, 24 hour) was “+”. The “MBC test growth score” value ([1]; 100% preservative, 48 hour) was “+/−”, the “MBC test growth score” value ([1]; 100% preservative, 72 hour) was 18 and the “MBC test growth score” value ([1]; 100% preservative, 7 day) was 5. For the same substance, the “MBC test growth score” value ([1]; 100% preservative, 14 day) was 4.
